Source: the supplement of paper PMC11061612

Tests used:
Test in all cases: Bliss excess, mean over the matrix (fraction); higher = more synergy
[1] = tested on: SK-OV-3 (Ovarian Carcinoma)
Outline: (§1)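 Cell lines in DMEM/F12 or RPMI with 10% FBS were plated in 1536-well plates, held 24 hours at 37°C, 5% CO2, then given two-drug dose matrices for 72 hours (DMSO typically 0.2%). Viability was read by CellTiter-Glo 2.0 luminescence and scaled as inhibition from 0 (vehicle wells) to 1 (blank wells). Combination Emax is the second-highest inhibition in the matrix; Bliss excess is observed combination effect minus expected EA + EB − EA·EB, EA and EB being single-agent effects.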

Mewo (Melanoma) = tested on: Mewo (Melanoma)
Outline: as §1

[2] = tested on: MHH-PREB-1 (B-Cell Non-Hodgkin's Lymphoma)
Outline: as §1

[3] = tested on: LoVo (Colorectal Carcinoma)
Outline: as §1

[4] = tested on: CAL-54 (Kidney Carcinoma)
Outline: as §1

[5] = tested on: HARA (Squamous Cell Lung Carcinoma)
Outline: as §1

[6] = tested on: OVCAR-8 (Ovarian Carcinoma)
Outline: as §1

[7] = tested on: LU-139 (Small Cell Lung Carcinoma)
Outline: as §1

NCI-H28 (Mesothelioma) = tested on: NCI-H28 (Mesothelioma)
Outline: as §1

[8] = tested on: MDA-MB-468 (Breast Carcinoma)
Outline: as §1

[9] = tested on: HDLM-2 (Hodgkin's Lymphoma)
Outline: as §1

[10] = tested on: NCI-H69 (Small Cell Lung Carcinoma)
Outline: as §1

[11] = tested on: KARPAS-231 (B-Cell Non-Hodgkin's Lymphoma)
Outline: as §1

NB14 (Neuroblastoma) = tested on: NB14 (Neuroblastoma)
Outline: as §1

[12] = tested on: NCI-H747 (Colorectal Carcinoma)
Outline: as §1

[13] = tested on: SUP-T1 (T-Lymphoblastic Leukemia)
Outline: as §1

[14] = tested on: KYSE-410 (Esophageal Squamous Cell Carcinoma)
Outline: as §1

[15] = tested on: TE-4 (Esophageal Squamous Cell Carcinoma)
Outline: as §1

[16] = tested on: SW626 (Colorectal Carcinoma)
Outline: as §1

COLO-829 (Melanoma) = tested on: COLO-829 (Melanoma)
Outline: as §1

Compound | Bliss excess [1] | Bliss excess (Mewo (Melanoma)) | Bliss excess [2] | Bliss excess [3] | Bliss excess [4] | Bliss excess [5] | Bliss excess [6] | Bliss excess [7] | Bliss excess (NCI-H28 (Mesothelioma)) | Bliss excess [8] | Bliss excess [9] | Bliss excess [10] | Bliss excess [11] | Bliss excess (NB14 (Neuroblastoma)) | Bliss excess [12] | Bliss excess [13] | Bliss excess [14] | Bliss excess [15] | Bliss excess [16] | Bliss excess (COLO-829 (Melanoma))
CCN(CCO)CCCOc1ccc2c(Nc3cc(CC(=O)Nc4cccc(F)c4)[nH]n3)ncnc2c1 [AZD2811] + O=C(c1cc(Cc2n[nH]c(=O)c3ccccc23)ccc1F)N1CCN(C(=O)C2CC2)CC1 [Olaparib] (first compound max 1 µM, 7x7, partner max 10 µM) | -0.041 | -0.0112 | 0.0032 | -0.0452 | -0.0073 | -0.0071 | 0.0244 | -0.0495 | -0.0383 | 0.0541 | -0.0224 | -0.0259 | 0.0091 | -0.0384 | 0.03 | 0.0208 | -0.0308 | 0.0049 | -0.0134 | 0.0233
C=CCn1c(=O)c2cnc(Nc3ccc(N4CCN(C)CC4)cc3)nc2n1-c1cccc(C(C)(C)O)n1 [AZD1775] + O=C(c1cc(Cc2n[nH]c(=O)c3ccccc23)ccc1F)N1CCN(C(=O)C2CC2)CC1 [Olaparib] (first compound max 1 µM, partner max 10 µM) | -0.0465 | -0.0237 | -0.0311 | -0.0313 | -0.0341 | -0.0325 | -0.0303 | -0.0775 | -0.0568 | -0.0449 | -0.0536 | -0.0166 | -0.0554 | -0.0306 | 0.0175 | -0.017 | -0.04 | 0.0271 | -0.0526 | -0.0137
CC1(C)CCC(CN2CCN(c3ccc(C(=O)NS(=O)(=O)c4ccc(NCC5CCOCC5)c([N+](=O)[O-])c4)c(Oc4cnc5[nH]ccc5c4)c3)CC2)=C(c2ccc(Cl)cc2)C1 [Venetoclax] + C[C@@H](Nc1cc(F)cc(F)c1)c1cc(C(=O)N(C)C)cc2c(=O)cc(N3CCOCC3)oc12 [AZD8186] (first compound max 1 µM, 7x7, partner max 3 µM) | -0.0984 | 0.0083 | -0.0297 | 0.029 | 0.0021 | 0.0144 | -0.0162 | 0.0371 | -0.0502 | -0.0688 | 0.122 | 0.0128 | -0.184 | -0.0644 | 0.0197 | -0.0402 | -0.0397 | -0.0315 | -0.0258 | -0.0019
CS(=O)(=O)CCNCc1ccc(-c2ccc3ncnc(Nc4ccc(OCc5cccc(F)c5)c(Cl)c4)c3c2)o1 [Lapatinib] + C[C@@H](Oc1cc(-c2cnn(C3CCNCC3)c2)cnc1N)c1c(Cl)ccc(F)c1Cl [Crizotinib] (first compound max 10 µM, 7x7, partner max 10 µM) | -0.0268 | -0.032 | -0.0164 | -0.0217 | -0.0801 | -0.0259 | -0.037 | -0.0147 | -0.0342 | -0.0582 | -0.0545 | -0.0303 | 0.0324 | -0.0338 | -0.0413 | -0.0469 | -0.0183 | 0.0198 | -0.0681 | -0.0345
Cc1cc2ncnn2cc1Nc1ncc2c(n1)n(C1CCOCC1)c(=O)n2C [AZD7648] + CCN(CCO)CCCOc1ccc2c(Nc3cc(CC(=O)Nc4cccc(F)c4)[nH]n3)ncnc2c1 [AZD2811] (first compound max 10 µM, 7x7, partner max 1 µM) | -0.0193 | 0.0082 | 0.0617 | -0.0126 | 0.0156 | 0.017 | 0.0473 | 0.0273 | 0.0016 | -0.0442 | -0.0457 | 0.0296 | -0.0041 | -0.0603 | -0.0205 | 0.11 | -0.0046 | 0.0096 | -0.0688 | -0.0034
Cc1c2c(nn1C)CSCc1cc(n(C)n1)CSc1cc(c3ccccc3c1)OCCCc1c(C(=O)O)n(C)c3c-2c(Cl)ccc13 [AZD5991] + Cc1cc2ncnn2cc1Nc1ncc2c(n1)n(C1CCOCC1)c(=O)n2C [AZD7648] (first compound max 1 µM, 7x7, partner max 10 µM) | -0.032 | -0.0211 | -0.0029 | -0.0356 | -0.0697 | 0.045 | -0.0129 | -0.013 | -0.0051 | 0.008 | 0.0007 | -0.0501 | -0.0639 | -0.0505 | -0.0703 | 0.0115 | -0.0184 | -0.025 | -0.0069 | -0.0341
COc1cccc(OCCCN)c1-c1cc(Nc2cnc(C#N)cn2)n[nH]1 [Prexasertib] + Cc1cc2ncnn2cc1Nc1ncc2c(n1)n(C1CCOCC1)c(=O)n2C [AZD7648] (first compound max 1 µM, 7x7, partner max 10 µM) | -0.0686 | -0.0079 | -0.0322 | -0.0687 | -0.0483 | -0.0085 | 0.0125 | -0.015 | -0.0397 | 0.0262 | -0.0934 | 0.0337 | 0.0123 | -0.0047 | 0.0085 | -0.0536 | -0.0267 | -0.003 | 0.0236 | 0.0467
CN(CCO)CC[C@H](CSc1ccccc1)Nc1ccc(S(=O)(=O)NC(=O)c2ccc(N3CCC([C@@H](O)c4ccccc4-c4ccc(Cl)cc4)CC3)cc2)cc1S(=O)(=O)C(F)(F)F [AZD4320] + CCN(CCO)CCCOc1ccc2c(Nc3cc(CC(=O)Nc4cccc(F)c4)[nH]n3)ncnc2c1 [AZD2811] (first compound max 1 µM, 7x7, partner max 1 µM) | -0.0522 | 0.0053 | 0.0034 | -0.0278 | -0.0406 | 0.106 | 0.028 | 0.0775 | -0.0045 | 0.0461 | 0.0781 | 0.035 | 0.0493 | 0 | -0.0558 | 0.0933 | -0.0437 | -0.0186 | 0.0278 | -0.0465
